Legend:
Assay type in all cases: in vivo
[1] = system: neutrophil cell (CD45+/Ly6G+ cells); experiment: Mouse air pouch model of MSU-induced gout: neutrophil cell density in exudate by flow cytometry; conditions: for AVERAGE VALUES (neutrophil cell density): Example 4, Table 3, topical paste 100 mg/mouse (5 mg actives total) 15 h prior to MSU, exudate 5 h after MSU; for INHIBITION RATE (neutrophils): Example 4, Table 3, vs blank control, topical paste 100 mg/mouse (5 mg actives total)
From the text: (§1) Mouse Air pouch model: this mouse model may be referenced to the methods and the experimental details as in the published article “Role of S100A8 and S100A9 in neutrophil recruitment in response to monosodium urate monohydrate crystals in the air-pouch model of acute gouty arthritis”, Arthritis Rheum 2003 August, 48(8):2310-20. The full content of such document as a whole is incorporated by reference herein and made a part of this specification.
(§2) Before the experiment, the mice are shaved to remove back hair. At day 0 sterile filtered air (2 ml/per mouse) is injected through 0.22 μm microfilter to the back of each mouse subcutaneously, so that a pseudosynovial cavity is formed in each mouse. At day 3, an air booster (3 ml/mouse) is again given to each mouse, so that the air pouch is maintained round. Later, the mice are weighed and grouped so that the average weight of the mice in each group is about the same. At day 6 monosodium urate (MSU) crystal suspension (5 mg in 2 ml/per mouse) is injected into the air pouch. Topical application of the paste (100 mg paste/per mouse) is administrated 15 hours prior to MSU stimulation. At a specific time (5 hours) after the injection of MSU, the mice were euthanized with an excess of carbon dioxide, 2 ml PBS per mouse is injected into the air pouch, and the air pouch is carefully cut to collect the exudate. The collected exudate is subjected to the centrifugation at 1,000 rpm, 4° C. for 5 minutes, and the supernatant is then placed in a 96-well plate and stored at −20° C. An ELISA kit (purchased from R&D Systems) is used to analyze the contents of IL-1β and IL-6 in the exudate. The precipitate is resuspended and reacted with 1 ml red blood cell lysis buffer (RBC lysis buffer) for one minute to remove the red blood cells, followed by adding 1 ml PBS to terminate the reaction, centrifuged at 1,000 rpm, 25° C. for 5 minutes, and the supernatant is discarded. The precipitate is then resuspended in 1 ml PBS as the cell suspension and the cell suspension is filtered by filter membrane (BD Falcon 100 μm Nylon filter strainer) and the filtered cell suspension is dispensed into several tubes (0.25 ml/tube) for subsequent cell counting or for labelling with various differentiation antigen markers (such as cluster of differentiation (CD) markers). The flow cytometry is used for cell counting of the various cells.
(§3) In order to investigate the anti-gout efficacy of AG02-RA1 and AG04-RA1, either used alone or in combination, the experiments are performed to test AG02-RA1 alone, AG04-RA1 alone and the combination (s) of AG02-RA1:AG04-RA1 in the ratio of 50:50 (Composition Nos. 1, 2 and 3 as shown in Table 1). […]

[2] = system: leukocyte cell (CD45+ cells); experiment: Mouse air pouch model of MSU-induced gout: leukocyte cell density in exudate by flow cytometry; conditions: for AVERAGE VALUES (normalized leukocyte cell density): Example 4, Table 2, topical paste 100 mg/mouse (5 mg actives total) 15 h prior to MSU, exudate 5 h after MSU; for INHIBITION RATE (leukocytes): Example 4, Table 2, vs blank control, topical paste 100 mg/mouse (5 mg actives total) 15 h prior to MSU
From the text: as §1, §2, §3

interleukin-1β (mIL-1β) = experiment: Mouse air pouch model of MSU-induced gout: IL-1β in exudate by ELISA; conditions: Example 4, FIG. 3; topical paste 100 mg/mouse (5 mg actives total) 15 h prior to MSU; exudate 5 h after MSU
From the text: as §1
(§4) Before the experiment, the mice are shaved to remove back hair. At day 0 sterile filtered air (2 ml/per mouse) is injected through 0.22 μm microfilter to the back of each mouse subcutaneously, so that a pseudosynovial cavity is formed in each mouse. At day 3, an air booster (3 ml/mouse) is again given to each mouse, so that the air pouch is maintained round. Later, the mice are weighed and grouped so that the average weight of the mice in each group is about the same. At day 6 monosodium urate (MSU) crystal suspension (5 mg in 2 ml/per mouse) is injected into the air pouch. Topical application of the paste (100 mg paste/per mouse) is administrated 15 hours prior to MSU stimulation. At a specific time (5 hours) after the injection of MSU, the mice were euthanized with an excess of carbon dioxide, 2 ml PBS per mouse is injected into the air pouch, and the air pouch is carefully cut to collect the exudate. […]

interleukin-6 (mIL-6) = experiment: Mouse air pouch model of MSU-induced gout: IL-6 in exudate by ELISA; conditions: Example 4, FIG. 4; topical paste 100 mg/mouse (5 mg actives total) 15 h prior to MSU; exudate 5 h after MSU
From the text: as §1, §4

| SMILES | AVERAGE VALUES (neutrophil cell density) [1] [cells*10^3/ml] | INHIBITION RATE (neutrophils) [1] [%] | AVERAGE VALUES (normalized leukocyte cell density) [2] [cells*10^3/ml] | INHIBITION RATE (leukocytes) [2] [%] | inhibition rate of interleukin-1β secretion amount (interleukin-1β (mIL-1β)) [%] | inhibition rate of interleukin-6 secretion amount (interleukin-6 (mIL-6)) [%] |
| --- | --- | --- | --- | --- | --- | --- |
| C=C1C(=O)OC2/C=C(\C)CC3C=C(CC/C=C(\C)CCC12)C(=O)O3 (stereo not shown) [AG02-RA1, 3,7,11,15(17)-cembratetraene-16,2:19,6-diolide-3484-37-5(3E,12E)-3,12-dimethyl-8-methylene-6,18-dioxa-tricyclo[14.2.1.0.5,9]nonadeca-3,12,16(19)-triene-7,17-dione] | 133 | 63 | 1609 | −100 | – | – |
| CC(=O)OCC=Cc1ccc(OC(C)=O)cc1 [AG04-RA1, 4-(3-acetoxy-propenyl)-phenyl acetate] | 205 | 43 | 670 | 17 | > 50 | > 50 |
